Measurements from patent US5696229A, “Polypeptide with laminin cell adhesion and morphogenesis activity” (The University of Virginia Patent Foundation, priority 1995, dated 1997).
Peptide text beside a SMILES is read from it.

What was measured:
type II alveolar cells [1] = assay type: cell-based, rat; conditions: for Area: Table II, laminin A chain synthetic peptide preincubated with cells before plating on BMS, None = 108 ± 23; for Inhibition of alveolar formation by soluble laminin fragment or peptide: preincubated with cells prior to plating on BMS, day five; for Area (of cellular structures): cells plated on 1.8 mg/cm^2 gelled protein substrate, 5 d, mean ± SD, alveoli defined as > 20 × 10^3 um^2; for Alveolar formation on substrate: cells plated on equal milligram amounts of gelled substrate
Description: Type II alveolar cells were isolated from 250-g Sprague Dawley rats (Hilltop Laboratory Animals, Inc.) according to the method of Rannels (Rannels and Rannels, 1988). Briefly, an initial cardiac perfusion with 0.9% saline was followed by instillation of the airways with 0.1% elastase (Calbiochem Corp., La Jolla, Calif.) in Joklik's modified minimal medium (JMEM) containing 0.05% BaSO4. Elastase was inactivated by instillation of JMEM containing soybean trypsin inhibitor (0.08%; Sigma Chemical Co., St. Louis, Mo.), DNase (0.08%. Sigman Chemical Co.), and 50% newborn calf serum (GIBCO BRL, Gaithersburg, Md.). Lung tissue was minced, vortexed, and filtered through 160-μm nylon mesh (Tetko, Elmsford, N.Y.). Released cells were centrifuged for 10 min at 500 g, resuspended in JMEM containing 0.08% DNAse, and layered on a Percoll (Pharmacia Fine Chemicals) discontinuous density gradient. After centrifugation for 20 min (4° C.) , cells were collected at the 1.04/1.08 interface, washed in JMEM, brought up in DME containing 10% fetal bovine serum (FBS) (GIBCO BRL), and incubated for 30 min (37° C.) in 75-cm^2 tissue culture flasks to eliminate contaminating macrophage cells which rapidly adhere to the plastic surface. The resultant type II alveolar cell preparations were 95% viable as determined by trypan blue exclusion; purity was 93% as assessed by the presence of lamellar bodies visible with Hoffman optics at a magnification of 40 and by tannic acid staining. Analysis of total cellular DNA/well on each day of an experiment was performed in triplicate on trypsin/disease released cells using a DNA fluorometry assay (Labarca and Paigen, 1980).
Freshly isolated type II alveolar cells were plated in 96-well plates at 20×10^3 cells/well on 500 μg/well (1.8 mg/cm^2) of gelled BMS of collagen I. Cells were cultured over 5 d with on media change performed on day three. Alveolar formation was analyzed at 24-h intervals over 5 d from photographic negatives (4×original magnification of central portion of each well) of triplicate wells. Images from negatives were transferred via video camera to an Image I imaging system (Universal Imaging Corp., West Chester, Pa.) and viewed on a color video monitor. The area of cellular structures was then determined and expressed as the mean±standard deviation. In some cases two size categories were distinguished: (a) single cells (200-300 μm^2) and (b) model alveoli (20×10^3 μm^2 or greater) with data expressed as percent of area occupied by each category.
(§1) In alveolar inhibition studies, antibodies (50 μg/well) were incubated with gelled BMS (500 μg/well) in wells of 96-well plates for 60 min at 37° C. Unbound antibody was removed by three DME washes (200 μl/well) and then freshly isolated cells were added. Dose-response assays were performed on all antibodies. Laminin fragments and synthetic peptides (micromolar amount indicated on figures) were preincubated with freshly isolated type II alveolar cells in suspension for 30 min at 37° C. with gentle agitation every 5 min; cells together with fragment or peptide were then plated on BMS. Cell viability in the presence of each antibody, fragment, or synthetic peptide was accessed using the MTT (3-[4,5-dimethylthiazol-2-yl]-2,5-diphenyl tetrazolium bromide) assay (Chemicon International, Inc. Temecula, Calif.).

type II alveolar cells [2] = experiment: Cell adhesion studies, type II alveolar cells on coated plates (Example 1); assay type: cell-based, rat; conditions: coating 100 μM
Method: (§2) Plates coated overnight (4° C.) with equimolar amounts of laminin, laminin fragment, or synthetic peptide were blocked with 1% BSA (Sigma Chemical Co.) for 4 h (4° C.) and cells were subsequently added (2×10^4 /well) in serum-free media and incubated for 60 min (37° C.) according to the method of Aumailey and Timpl (1986). Inhibition studies were carried out by preincubating cells for 30 min (37°; gentle agitation every 5 min) with equimolar amounts of soluble fragment or peptide. Cells, together with soluble inhibitor, were then added to the coated plates. After a 60-min (37° C.) incubation, plates were washed twice with PBX, fixed with 1% glutarldehyde (Electron Microscopy Service Laboratories, Westmount, N.J.), PBS, washed, stained with 0.1% crystal violet (Serra Biochemicals, Hauppauge, N.Y.), washed twice with distilled water, solubilized in 0.5% Triton X-100 (Sigma Chemical Co.), and read on an ELISA plate reader (Molecular Devices Corp., Menio Park, Calif.) equipped with a 595-nm filter.

[3] = tested on: HT1080 human fibrosarcoma cells; experiment: Cell adhesion studies, HT1080 cells on coated plates (Example 1); assay type: cell-based
Method: as §2

type II alveolar cells [4] = assay type: cell-based, rat
Method: as §1

“AASIKVAVSADR [peptide from mouse laminin A chain, antigen of ab-A[IK], reference compound]” was tested, and the Area (type II alveolar cells [1]) was 98 ± 22 μm^2 × 10^3 and the “Inhibition of alveolar formation by soluble laminin fragment or peptide” value (“Inhibition of alveolar formation” below) (type II alveolar cells [1]) was “no effect on alveolar formation”.

“WHSIYITR [middle 8-mer of SN-peptide from trypsin digestion]” was tested, and the “Inhibition of alveolar formation” value (type II alveolar cells [1]) was “partial”.

With “KQNCLSSRASFRGCVRNLRLSR [reference compound]” the Area (type II alveolar cells [1]) was 110 ± 19 μm^2 × 10^3 and the “Inhibition of alveolar formation” value (type II alveolar cells [1]) was “no effect on alveolar formation”.

For “Laminin: Mouse laminin, large cross-shaped cell adhesive heterotrimer”, the “Adhesion of type II alveolar cells to coated substrate” value (type II alveolar cells [2]) was “Adhesion”, the “Area (of cellular structures)” value (type II alveolar cells [1]) was 35 ± 3 μm^2 × 10^3 and the “Alveolar formation on substrate” value (type II alveolar cells [1]) was “alveoli formed only on laminin”. For the same molecule, the Percent cell attachment ([3]; HT1080 cells, substrate coated at 35 μM, mean ± SD) was 80 ± 0.02%.

Molecule `CC[C@H](C)[C@H](NC(=O)[C@@H](N)CO)C(=O)N[C@@H](CC(N)=O)C(=O)N[C@@H](CC(N)=O)C(=O)N[C@@H](CC(N)=O)C(=O)N[C@@H](CCCNC(=N)N)C(=O)O` [SINNNR] (H-SINNNR-OH) has an IC50 (type II alveolar cells [1]) of 68 µM.

In the case of “AASVVIAKSADR [scrambled IKVAV control peptide, reference compound]”, the Area (type II alveolar cells [1]) is reported as 100 ± 18 μm^2 × 10^3 and the “Inhibition of alveolar formation” value (type II alveolar cells [1]) is reported as “no effect on alveolar formation”.

With “RGDS [functionally identical to RGDN, P1 fragment cell adhesion site, reference compound]” the Area (type II alveolar cells [1]) was 105 ± 24 μm^2 × 10^3 and the “Inhibition of alveolar formation” value (type II alveolar cells [1]) was “no effect on alveolar formation”.

With `O=C(O)CN(CCN(CC(=O)O)CC(=O)O)CC(=O)O` [EDTA, reference compound] the “Inhibition of HT1080 cell adhesion to SN-peptide” value ([3]; cells preincubated with inhibitor, coating and inhibitor 100 μM, EDTA 2 mM) was “inhibited”.

Work on `CC[C@H](C)[C@H](NC(=O)[C@H](CO)NC(=O)[C@H](Cc1c[nH]cn1)NC(=O)[C@H](Cc1c[nH]c2ccccc12)NC(=O)[C@H](CCCNC(=N)N)NC(=O)[C@H](CC(N)=O)NC(=O)[C@H](CC(N)=O)NC(=O)[C@H](CC(N)=O)NC(=O)[C@@H](NC(=O)[C@@H](N)CO)[C@@H](C)CC)C(=O)N[C@@H](Cc1ccc(O)cc1)C(=O)N[C@H](C(=O)N[C@H](C(=O)N[C@@H](CCCNC(=N)N)C(=O)N[C@@H](Cc1ccccc1)C(=O)NCC(=O)N[C@@H](CC(N)=O)C(=O)N[C@@H](CCSC)C(=O)NCC(=O)N[C@@H](CO)C(=O)O)[C@@H](C)O)[C@@H](C)CC` [SN-peptide] (H-SINNNRWHSIYITRFGNMGS-OH) yielded a Cell viability (type II alveolar cells [4]) of 97±1% and an IC50 (type II alveolar cells [1]) of 50 µM.

In the case of “FGNMGS [carboxy-terminal 6-mer of SN-peptide from trypsin digestion]”, the “Inhibition of alveolar formation” value (type II alveolar cells [1]) is reported as “minimal”.

Collagen IV: Mouse collagen IV was tested, and the “Area (of cellular structures)” value (type II alveolar cells [1]) was 0.4 ± 0.2 μm^2 × 10^3.

With “collagen I: Rat tail collagen I, negative control substrate” the “Alveolar formation on substrate” value (type II alveolar cells [1]) was “completely ineffective”.

B1: Entactin: Mouse entactin purchased from Upstate Biotechnology (protein, UniProt P10493 29-1245, looked up)
Nidogen-1: LNRQELFPFGPGQGDLELEAGDDVVSPSLELIGELSFYDRTDITSVYVTTNGIIAMSEPPATEYHPGTFPPSFGSVAPFLADLDTTDGLGNVYYREDLSPFIIQMAAEYVQRGFPEVSFQPTSVVVVTWESVAPYGGPSSSPAEEGKRNTFQAVLASSNSSSYAIFLYPEDGLQFFTTFSKKDESQVPAVVGFSKGLVGFLWKSNGAYNIFANDRESIENLAKSSNAGHQGVWVFEIGSPATAKGVVSADVNLDLDDDGADYEDEDYDLVTSHLGLEDVATPSPSHSPRRGYPDPHNVPRILSPGYEATERPRGVPTERTRSFQLPAERFPQHHPQVIDVDEVEETGVVFSYNTGSQQTCANNRHQCSVHAECRDYATGFCCRCVANYTGNGRQCVAEGSPQRVNGKVKGRIFVGSSQVPVVFENTDLHSYVVMNHGRSYTAISTIPETVGYSLLPLAPIGGIIGWMFAVEQDGFKNGFSITGGEFTRQAEVTFLGHPGKLVLKQQFSGIDEHGHLTISTELEGRVPQIPYGASVHIEPYTELYHYSSSVITSSSTREYTVMEPDQDGAAPSHTHIYQWRQTITFQECAHDDARPALPSTQQLSVDSVFVLYNKEERILRYALSNSIGPVRDGSPDALQNPCYIGTHGCDSNAACRPGPGTQFTCECSIGFRGDGQTCYDIDECSEQPSRCGNHAVCNNLPGTFRCECVEGYHFSDRGTCVAAEDQRPINYCETGLHNCDIPQRAQCIYMGGSSYTCSCLPGFSGDGRACRDVDECQHSRCHPDAFCYNTPGSFTCQCKPGYQGDGFRCMPGEVSKTRCQLEREHILGAAGGADAQRPTLQGMFVPQCDEYGHYVPTQCHHSTGYCWCVDRDGRELEGSRTPPGMRPPCLSTVAPPIHQGPVVPTAVIPLPPGTHLLFAQTGKIERLPLERNTMKKTEAKAFLHIPAKVIIGLAFDCVDKVVYWTDISEPSIGRASLHGGEPTTIIRQDLGSPEGIALDHLGRTIFWTDSQLDRIEVAKMDGTQRRVLFDTGLVNPRGIVTDPVRGNLYWTDWNRDNPKIETSHMDGTNRRILAQDNLGLPNGLTFDAFSSQLCWVDAGTHRAECLNPAQPGRRKVLEGLQYPFAVTSYGKNLYYTDWKTNSVIAMDLAISKEMDTFHPHKQTRLYGITIALSQCPQGHNYCSVNNGGCTHLCLPTPGSRTCRCPDNTLGVDCIERK
In the case of B1, the “Area (of cellular structures)” value (type II alveolar cells [1]) is reported as 1 ± 0.5 μm^2 × 10^3.
